Laboratory results as given in patent US20220228111A1, “NOCICEPTOR DIFFERENTIATION FROM HUMAN PLURIPOTENT STEM CELLS” (priority 2019, published 2022).
Entries after “also recorded” stand apart in the source; their conditions may differ.

Legend:
[1] = system: iPSC-derived nociceptor-like cells; assay: Multi-electrode array: stimulation of nociceptor-like cells by specific ligands; type: cell-based, human
Method: Functional analysis of nociceptors derived from iPSCs according to the procedure described in Example 1 was performed. Multi-electrode arrays were used for the electrophysiology characterization experiments.

[2] = molecular target: T1, purinergic receptor P2RX3 (Homo sapiens, UniProt P56373); assay: Multi-electrode array: α,β-me-ATP stimulation and P2RX3 antagonist block in nociceptor-like cells; type: cell-based; conditions: 10 μM, day 28, multi-electrode array
T1 construct: iPSC-derived nociceptor-like cells were stimulated by application of 10 μM α,β-me-ATP, which is a known agonist for P2RX3 purinergic receptors; endogenous in cells; host or cells: iPSC-derived nociceptor-like cells, day 28 of differentiation
T1 sequence (P56373 1-397): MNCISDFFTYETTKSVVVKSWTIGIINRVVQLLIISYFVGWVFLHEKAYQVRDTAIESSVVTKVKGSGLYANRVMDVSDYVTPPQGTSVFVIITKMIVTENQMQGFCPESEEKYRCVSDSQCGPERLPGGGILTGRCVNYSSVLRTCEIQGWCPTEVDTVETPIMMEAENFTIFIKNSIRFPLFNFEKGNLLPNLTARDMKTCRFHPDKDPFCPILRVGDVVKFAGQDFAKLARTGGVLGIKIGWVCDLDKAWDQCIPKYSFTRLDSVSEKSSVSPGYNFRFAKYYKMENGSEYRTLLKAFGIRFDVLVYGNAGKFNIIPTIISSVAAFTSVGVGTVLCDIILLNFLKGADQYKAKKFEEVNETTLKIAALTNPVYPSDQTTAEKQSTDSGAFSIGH
Method: At day 28 of the procedure described in Example 1, the iPSC-derived nociceptor-like cells were pre-treated with 0.1% DMSO or 10 μM of each known antagonist of purinergic receptor P2RX3 for 30 minutes at 37° C. The cells were then stimulated by 10 μM α,β-me-ATP, and recordings were performed using multi-electrode.

[3] = system: iPSC-derived nociceptor-like cells; assay: Multi-electrode array: sensitization of nociceptor-like cells with temperature stimulation; type: cell-based, human; conditions: then 40° C., day 28
Source text: FIGS. 12A and 12B illustrate the results of an electrophysiology experiment (multi-electrode array using Maestro Pro, Axion Biosystems) showing that iPSC-derived nociceptor-like cells were sensitized in response to treatment with oxaliplatin and prostaglandin E2 (PGE2). Oxaliplatin is a widely used chemotherapeutic drug that can damage sensory neurons of the peripheral nervous system and lead to peripheral neuropathy. PGE2 is used to model inflammatory pain. At day 28 of the procedure described in Example 1, the iPSC-derived nociceptor-like cells were recorded at 37° C. for 10 minutes for baseline recording, and then pre-treated with 0.1% DMSO, 50 μM Oxaliplatin or 1 μM PGE2 for 15 minutes at 37° C. The temperature was then increased to 40° C. to stimulate the cells, and recording was performed for another 10 minutes.

cellular target = conditions: cited from earlier work; for IC50: as described in Sidrauski et al.

COc1cc(CNC(=O)CCCC/C=C/C(C)C)ccc1O [capsaicin]
response: frequency of firing action potentials ([1]; 5 μM): increasing the frequency of firing action potentials; also recorded: stimulated

Nc1ncnc2c1ncn2[C@@H]1O[C@H](COP(=O)(O)CP(=O)(O)OP(=O)(O)O)[C@@H](O)[C@H]1O [α,β-me-ATP]
stimulation of nociceptor-like cells [2]: stimulated | response: frequency of firing action potentials ([1]; 10 μM): increasing the frequency of firing action potentials; also recorded: stimulated

O=C1[O][Pt]2([NH][C@@H]3CCCC[C@H]3[NH]2)[O]C1=O [oxaliplatin]
sensitization of nociceptor-like cells ([3]; 50 μM pre-treatment 15 minutes at 37° C.): sensitized

C=CCN=C=S [mustard oil, allyl isothiocyanate]
response: frequency of firing action potentials ([1]; 100 μM): increasing the frequency of firing action potentials; also recorded: stimulated

O=C(COc1ccc(Cl)cc1)N[C@H]1CC[C@H](NC(=O)COc2ccc(Cl)cc2)CC1 [trans-ISRIB, N,N′-((1r,4r)-cyclohexane-1,4-diyl)bis(2-(4-chlorophenoxy)acetamide)]
IC50 (cellular target): 5 nM | fold more potent than cis-ISRIB (cellular target; trans-ISRIB vs cis-ISRIB): 100 fold

O=C(COc1ccc(Cl)cc1)NC1CCC(NC(=O)COc2ccc(Cl)cc2)CC1 (stereo not drawn) [cis-ISRIB]
IC50 (cellular target): 600 nM

CCCCC[C@H](O)/C=C/[C@H]1[C@H](O)CC(=O)[C@@H]1C/C=C\CCCC(=O)O [PGE2, prostaglandin E2]
sensitization of nociceptor-like cells ([3]; 1 μM pre-treatment 15 minutes at 37° C.): sensitized
